The values below are quoted from earlier work in US20180000827A1 (SYNTHON B.V., priority 2014, published 2018).

As for `COc1cc2ncnc(Nc3ccc(F)c(Cl)c3)c2cc1OCCCN1CCOCC1` [Gefitinib, 4-(3-chloro-4-fluorophenylamino)-7-methoxy-6-[3-(4-morpholinyl)propoxy] quinazoline], the “solubility dependence on pH” value is recorded as “highly dependent upon pH”.
